In article PMC12951562, “SH2scan: Mapping SH2 Domain-Ligand Binding Selectivity for Inhibitors and Degraders” (Journal of Medicinal Chemistry, 2026) one finds remaining activity, KD and Kd data, which are given here for two compounds.

One may read the Kd as the equilibrium constant for the complex coming apart.

What all share (test): biochemical
What all share (format): binding

One experiment concerns the target T1, LYN (Homo sapiens, UniProt P07948).
T1 construct: the DNA-tagged SH2 domain concentrations used in this study were <0.1 nM; made in house; host or cells: HEK293 (transient transfection, unpurified extract)
The conditions noted are these: primary screen, 10 μM; read-out: percent of DMSO vehicle control.

The next experiment has as its target T2, APS (SH2B2) (Homo sapiens, UniProt O14492).
T2 construct: the DNA-tagged SH2 domain concentrations used in this study were <0.1 nM; made in house; host or cells: HEK293 (transient transfection; unpurified extract)
The conditions noted are these: primary screen, 10 μM; read-out: percent of DMSO vehicle control.

For the next experiment, the target named is T3, RASA1(SH2dom.N-term.) (Homo sapiens, UniProt P20936).
T3 construct: SH2dom.N-term. denotes SH2 domain closest to N-terminus of protein; made in house; host or cells: HEK293 (transient transfection), unpurified extract
T3 sequence (P20936 181-272 limits assumed): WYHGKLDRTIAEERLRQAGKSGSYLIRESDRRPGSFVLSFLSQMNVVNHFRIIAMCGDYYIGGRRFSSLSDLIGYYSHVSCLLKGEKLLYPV
The conditions noted are these: primary screen, 10 μM; read-out: percent of DMSO vehicle control.

Another experiment has as its target T4, STAP1 (Homo sapiens, UniProt Q9ULZ2).
T4 construct: made in house; host or cells: HEK293 (transient transfection), unpurified extract
T4 sequence (Q9ULZ2 1-295): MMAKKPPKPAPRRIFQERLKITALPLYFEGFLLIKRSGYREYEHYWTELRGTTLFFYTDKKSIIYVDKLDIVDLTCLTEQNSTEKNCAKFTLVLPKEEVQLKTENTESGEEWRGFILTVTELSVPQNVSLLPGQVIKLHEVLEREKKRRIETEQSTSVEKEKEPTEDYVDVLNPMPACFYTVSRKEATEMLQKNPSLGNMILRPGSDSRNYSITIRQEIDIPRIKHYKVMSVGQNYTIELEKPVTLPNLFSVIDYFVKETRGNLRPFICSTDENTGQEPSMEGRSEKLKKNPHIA
The conditions noted are these: primary screen, 10 μM; read-out: percent of DMSO vehicle control.

The target in the next experiment is T5, FRK (Homo sapiens, UniProt P42685).
T5 construct: the DNA-tagged SH2 domain concentrations used in this study were <0.1 nM; made in house; host or cells: HEK293 (transient transfection; unpurified extract)
T5 sequence (P42685 116-208 limits assumed): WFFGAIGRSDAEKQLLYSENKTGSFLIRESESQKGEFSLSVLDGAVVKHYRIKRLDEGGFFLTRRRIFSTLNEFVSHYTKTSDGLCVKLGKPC
The conditions noted are these: primary screen, 10 μM; read-out: percent of DMSO vehicle control.

In the next experiment the target is T6, VAV2 (Homo sapiens, UniProt P52735).
T6 construct: made in house; host or cells: HEK293 (transient transfection), unpurified extract
T6 sequence (P52735 1-878): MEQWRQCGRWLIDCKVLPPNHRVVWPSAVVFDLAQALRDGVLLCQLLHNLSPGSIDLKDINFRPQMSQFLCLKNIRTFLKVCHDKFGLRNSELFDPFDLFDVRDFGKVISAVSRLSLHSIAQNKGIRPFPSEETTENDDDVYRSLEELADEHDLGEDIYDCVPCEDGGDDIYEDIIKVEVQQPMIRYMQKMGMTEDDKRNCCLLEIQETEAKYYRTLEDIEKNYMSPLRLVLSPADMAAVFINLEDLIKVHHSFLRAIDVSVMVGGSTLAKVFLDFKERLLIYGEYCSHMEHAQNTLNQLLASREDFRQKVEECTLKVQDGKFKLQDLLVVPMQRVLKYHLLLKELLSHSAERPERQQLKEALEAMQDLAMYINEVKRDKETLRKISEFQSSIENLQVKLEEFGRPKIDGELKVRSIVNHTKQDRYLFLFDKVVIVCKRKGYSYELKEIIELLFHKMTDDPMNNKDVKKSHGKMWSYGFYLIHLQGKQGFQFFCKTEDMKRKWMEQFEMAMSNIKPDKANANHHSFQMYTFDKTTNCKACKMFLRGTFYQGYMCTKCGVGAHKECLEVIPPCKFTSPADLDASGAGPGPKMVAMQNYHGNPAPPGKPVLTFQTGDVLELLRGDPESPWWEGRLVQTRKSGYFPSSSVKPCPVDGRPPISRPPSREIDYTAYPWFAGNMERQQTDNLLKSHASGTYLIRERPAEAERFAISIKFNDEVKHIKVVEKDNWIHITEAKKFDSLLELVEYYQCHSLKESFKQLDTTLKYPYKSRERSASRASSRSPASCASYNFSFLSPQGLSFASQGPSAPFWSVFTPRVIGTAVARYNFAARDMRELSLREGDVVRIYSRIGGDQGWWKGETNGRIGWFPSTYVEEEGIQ
The conditions noted are these: primary screen, 10 μM; read-out: percent of DMSO vehicle control.

The target of a further experiment is T7, ABL1 (Homo sapiens, UniProt P00519).
T7 construct: the DNA-tagged SH2 domain concentrations used in this study were <0.1 nM; made in house; host or cells: HEK293 (transient transfection; unpurified extract)
T7 sequence (P00519 127-217 limits assumed): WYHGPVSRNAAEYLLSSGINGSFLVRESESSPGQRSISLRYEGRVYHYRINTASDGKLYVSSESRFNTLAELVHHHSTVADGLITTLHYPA
The conditions noted are these: for KD: dose-response; for remaining activity at 10 µM: primary screen, read-out: percent of DMSO vehicle control.

The target of another experiment is T8, SH3BP2 (Homo sapiens, UniProt P78314).
T8 construct: made in house; host or cells: HEK293 (transient transfection), unpurified extract
T8 sequence (P78314 1-561): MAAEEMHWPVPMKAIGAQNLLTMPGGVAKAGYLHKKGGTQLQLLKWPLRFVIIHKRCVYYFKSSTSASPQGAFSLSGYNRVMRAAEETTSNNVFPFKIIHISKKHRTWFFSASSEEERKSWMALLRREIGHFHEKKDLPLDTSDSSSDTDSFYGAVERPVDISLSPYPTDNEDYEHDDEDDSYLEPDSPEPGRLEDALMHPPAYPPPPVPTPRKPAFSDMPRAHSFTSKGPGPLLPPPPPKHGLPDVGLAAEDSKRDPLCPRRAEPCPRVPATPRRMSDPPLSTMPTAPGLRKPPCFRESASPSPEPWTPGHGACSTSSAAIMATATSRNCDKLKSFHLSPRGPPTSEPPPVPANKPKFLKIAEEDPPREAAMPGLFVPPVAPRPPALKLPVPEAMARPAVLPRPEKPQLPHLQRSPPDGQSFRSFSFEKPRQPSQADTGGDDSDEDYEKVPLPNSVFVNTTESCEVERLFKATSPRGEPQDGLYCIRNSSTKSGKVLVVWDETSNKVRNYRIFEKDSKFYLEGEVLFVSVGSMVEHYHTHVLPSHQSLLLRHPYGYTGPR
The conditions noted are these: primary screen, 10 μM; read-out: percent of DMSO vehicle control.

For another experiment, the target named is T9, NCK1 (Homo sapiens, UniProt P16333).
T9 construct: the DNA-tagged SH2 domain concentrations used in this study were <0.1 nM; made in house; host or cells: HEK293 (transient transfection, unpurified extract)
The conditions noted are these: for remaining activity at 10 µM: primary screen, read-out: percent of DMSO vehicle control.

In another experiment the target is T10, SRC (Homo sapiens, UniProt P12931).
T10 construct: made in house; host or cells: HEK293 (transient transfection), unpurified extract
T10 sequence (P12931 whole entry): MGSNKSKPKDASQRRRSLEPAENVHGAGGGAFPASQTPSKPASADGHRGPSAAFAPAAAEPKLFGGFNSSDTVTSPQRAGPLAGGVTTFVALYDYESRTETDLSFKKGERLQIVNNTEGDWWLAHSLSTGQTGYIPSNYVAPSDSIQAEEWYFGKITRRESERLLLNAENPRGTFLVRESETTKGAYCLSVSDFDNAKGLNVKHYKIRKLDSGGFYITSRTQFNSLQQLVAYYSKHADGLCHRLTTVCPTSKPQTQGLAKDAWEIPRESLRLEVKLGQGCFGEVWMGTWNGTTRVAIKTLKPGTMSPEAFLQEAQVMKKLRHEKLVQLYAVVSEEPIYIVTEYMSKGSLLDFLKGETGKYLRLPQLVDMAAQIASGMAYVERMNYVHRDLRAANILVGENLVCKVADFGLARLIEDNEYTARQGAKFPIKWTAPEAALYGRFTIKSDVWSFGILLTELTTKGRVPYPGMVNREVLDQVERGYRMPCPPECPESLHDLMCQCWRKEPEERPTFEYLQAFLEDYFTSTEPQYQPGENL
The conditions noted are these: primary screen, 10 μM; read-out: percent of DMSO vehicle control.

For the next experiment, the target named is T11, PIK3R1(SH2dom.C-term.) (Homo sapiens, UniProt P27986).
T11 construct: SH2dom.C-term. denotes SH2 domain closest to C-terminus of protein; made in house; host or cells: HEK293 (transient transfection, unpurified extract)
T11 sequence (P27986 624-718 limits assumed): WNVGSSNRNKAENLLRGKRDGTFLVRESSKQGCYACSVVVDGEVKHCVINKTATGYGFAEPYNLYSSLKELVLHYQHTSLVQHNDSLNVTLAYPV
The conditions noted are these: for remaining activity at 10 µM: primary screen, read-out: percent of DMSO vehicle control.

T1 sequence (P07948 129-226 limits assumed): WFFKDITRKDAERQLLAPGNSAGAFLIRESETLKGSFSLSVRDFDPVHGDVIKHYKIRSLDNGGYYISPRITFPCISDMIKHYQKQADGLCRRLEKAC
T2 sequence (O14492 417-515 limits assumed): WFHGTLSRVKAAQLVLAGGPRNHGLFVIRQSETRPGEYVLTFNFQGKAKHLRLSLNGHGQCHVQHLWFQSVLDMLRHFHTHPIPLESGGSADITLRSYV

On to `O=C(COc1ccc2cc(C(=O)Nc3ccccc3)ccc2c1)NCc1ccc(OP(=O)(O)O)c(OP(=O)(O)O)c1` [Stafib-1], for which the remaining activity at 10 µM on LYN is 95.6 ± 22.4%; at APS (SH2B2), 64.6 ± 31.3%; at RASA1(SH2dom.N-term.) it was 71.3 ± 8.8%; at STAP1, 92 ± 6.8%; at FRK, 65.3 ± 42.8%; on VAV2, 95.8 ± 29.1%. Further, the remaining activity at 10 µM at ABL1 came out at 19.9%; at SH3BP2, 86 ± 3.2%; at NCK1 it was 53.7 ± 39.3%; on SRC it was 90.6 ± 5.2%; at PIK3R1(SH2dom.C-term.) it was 85.3 ± 16.8%. Besides, at ABL1, the KD result was “No Hit”.

With `C/C(=C\C(=O)N[C@H](C(=O)N1CCC[C@H]1C(=O)N(c1ccccc1)c1ccc(I)cc1)C(C)(C)C)c1ccc(OP(=O)(O)O)cc1` [STAT6-IN-1], the remaining activity at 10 µM was found to be 73.6 ± 54% at LYN; 45.3 ± 5.2% at APS (SH2B2); 50.2 ± 0.4% on RASA1(SH2dom.N-term.); 65.6 ± 5.1% on STAP1; 38.3 ± 5.9% on FRK; 79.9 ± 1.6% on VAV2. Besides, the remaining activity at 10 µM at ABL1 turned out to be 0%; at SH3BP2 it was 56.5 ± 0.3%; on NCK1, 10.6 ± 2.6%; at SRC, 53.3 ± 8.1%; on PIK3R1(SH2dom.C-term.), 12.3 ± 0.1%. In addition, the KD entry on ABL1 and on NCK1 (dose-response) was “No Hit” each time. Besides, the Kd on PIK3R1(SH2dom.C-term.) (dose-response, read-out: KD) worked out at 3.4 ± 1.1 µM.
